Experimental data reported in publication PMC3741162, “Structures of Streptococcus pneumoniae PiaA and Its Complex with Ferrichrome Reveal Insights into the Substrate Binding and Release of High Affinity Iron Transporters” (PLoS ONE, 2013).
Where a SMILES comes first, the peptide text is derived from it. [ ]: non-standard residue; d: D form. Orn(N5-OH,N5-Ac) = CC(=O)N(O)CCC[C@H](N)C(=O)O

Tests used:
PiaA [1] = molecular target: T1, PiaA (Streptococcus pneumoniae, UniProt A0A0H2UPT5); experiment: ITC and crystal structure ([…] Å); assay type: binding
T1 construct: gene SP_1032; residues Asn23-Lys341, N-terminal 6×His-tag

PiaA [2] = molecular target: T2, PiaA (Streptococcus pneumoniae, UniProt A0A0H2UPT5, W63A); experiment: ITC; assay type: binding
T2 construct: gene SP_1032; residues Asn23-Lys341, N-terminal 6×His-tag
T2 sequence (A0A0H2UPT5 23-341 W63A): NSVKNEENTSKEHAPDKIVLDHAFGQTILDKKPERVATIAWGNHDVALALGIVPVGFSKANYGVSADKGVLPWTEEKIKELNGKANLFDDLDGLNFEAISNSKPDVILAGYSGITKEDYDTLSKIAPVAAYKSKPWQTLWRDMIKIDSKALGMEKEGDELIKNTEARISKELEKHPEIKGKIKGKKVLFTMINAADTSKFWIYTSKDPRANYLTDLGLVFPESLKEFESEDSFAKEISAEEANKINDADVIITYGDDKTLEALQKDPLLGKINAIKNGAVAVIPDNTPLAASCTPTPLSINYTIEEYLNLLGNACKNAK

## CC(=O)N([O-])CCC[C@@H]1NC(=O)CNC(=O)CNC(=O)CNC(=O)[C@H](CCCN([O-])C(C)=O)NC(=O)[C@H](CCCN([O-])C(C)=O)NC1=O.[Fe+3] [ferrichrome] (cyclo(GGG[Orn(N5-OH,N5-Ac)][Orn(N5-OH,N5-Ac)][Orn(N5-OH,N5-Ac)]))
PiaA [1]
  Kd: 5.8 ± 1.4 nM
PiaA [2]
  Kd: ~32.8 nM
